Results from US20200024278A1, “COMPOSITION COMPRISING ANTIBIOTIC COMPOUND AND AN HETEROCYCLIC COMPOUND AND THEIR USE IN PREVENTING OR TREATING BACTERIAL INFECTIONS” (MUTABILIS, priority 2016, published 2020).

Assays:
Experiment in all cases: MIC, broth microdilution (CLSI), substance alone or ATB combined with compound at 4 or 8 μg/mL
ECO 190317 = type: cell-based, E. coli; settings: ECO 190317
Method: (§1) Compounds of the present invention were assessed against genotyped bacterial strains alone or in combination with an antibacterial. In the assays, MICs of said compounds or combination of antibiotics with fixed concentrations of said compounds (4 or 8 μg/mL) were determined by the broth microdilution method according to the Clinical Laboratory Standards Institute (CLSI-M7-A7). Briefly, compounds alone according to the invention were prepared in DMSO and spotted (2 μL each) on sterile polystyrene plates (Corning, 3788). Combinations of compounds and antibiotics dilutions were prepared in DMSO and spotted (1 μL each) on sterile polystyrene plates (Corning, 3788). Log phase bacterial suspensions were adjusted to a final density of 5·10^5 CFU/mL in cation-adjusted Mueller-Hinton broth (ca-MHB; Becton-Dickinson and Company) and added to each well (98 μL). Assays including Fosfomycin were supplemented with 25 μg/ml of Glucose-6-phosphate. Microplates were incubated for 16-20 h at 35° C. in ambient air. The MIC of the compounds was defined as the lowest concentration of said compounds that prevented bacterial growth as read by visual inspection. The MIC of ATB at each compound concentration was defined as the lowest concentration of ATB that prevented bacterial growth as read by visual inspection.

ECO UFR39 = type: cell-based, E. coli; settings: ECO UFR39
Method: as §1

SAU 29213 = type: cell-based, S. aureus; settings: SAU 29213
Method: as §1

KPN BAA-1898 = type: cell-based, K. pneumoniae; settings: KPN BAA-1898
Method: as §1

KPN 6299 = type: cell-based, K. pneumoniae
Method: as §1

KPN UFR42 = type: cell-based, K. pneumoniae; settings: KPN UFR42
Method: as §1

PAE UFR90 = type: cell-based, P. aeruginosa; settings: PAE UFR90
Method: as §1

PAE 105250 = type: cell-based, P. aeruginosa; settings: PAE 105250
Method: as §1

PAE UFR48 = type: cell-based, P. aeruginosa; settings: PAE UFR48
Method: as §1

SPN 49619 = type: cell-based, S. pneumoniae; settings: SPN 49619
Method: as §1

ECL P99 = type: cell-based, E. cloacae; settings: ECL P99
Method: as §1

CO/N=C(\C(=O)N[C@@H]1C(=O)N2C(C(=O)[O-])=C(C[n+]3cccc4c3CCC4)CS[C@H]12)c1csc(N)n1 [CPO]
0.125 µg/mL: MIC ATB combined with Example 1 @8 μg/ml (KPN BAA-1898; with Example 1 @8 μg/ml) | MIC ATB combined with Example 1 @8 μg/ml (KPN BAA-1898; with Example 1 at 8 μg/ml) | MIC ATB combined with Example 13 @8 μg/ml (KPN 6299; with Example 13 at 8 μg/ml)
<=0.031 μg/mL: MIC ATB combined with Example 15 @4 μgml (ECO 190317; with Example 15 at 4 μg/ml) | MIC ATB combined with Example 11 @8 μg/ml (KPN BAA-1898; with Example 11 at 8 μg/ml) | MIC ATB combined with Example 15 @4 μgml (KPN BAA-1898; with Example 15 at 4 μg/ml) | MIC ATB combined with Example 9 @4 μg/ml (KPN 6299; with Example 9 @4 μg/ml) | MIC ATB combined with Example 9 @4 μg/ml (KPN 6299; with Example 9 at 4 μg/ml) | MIC ATB combined with Example 15 @4 μgml (KPN 6299; with Example 15 at 4 μg/ml) | MIC ATB alone (SPN 49619; CPO alone) | MIC ATB alone (SPN 49619; antibiotic alone) | MIC ATB combined with Example 1 @8 μg/ml (SPN 49619; with Example 1 @8 μg/ml) | MIC ATB combined with Example 9 @4 μg/ml (SPN 49619; with Example 9 @4 μg/ml) | MIC ATB combined with Example 7 @8 μgml (ECL P99; with Example 7 at 8 μg/ml)
0.5 µg/mL: MIC ATB combined with Example 13 @8 μg/ml (KPN BAA-1898; with Example 13 at 8 μg/ml) | MIC ATB combined with Example 1 @8 μg/ml (KPN 6299; with Example 1 @8 μg/ml) | MIC ATB combined with Example 1 @8 μg/ml (KPN 6299; with Example 1 at 8 μg/ml)
16 µg/mL: MIC ATB combined with Example 1 @8 μg/ml (KPN UFR42; with Example 1 @8 μg/ml) | MIC ATB alone (ECL P99; antibiotic alone)
>256 µg/mL: MIC ATB alone (ECO 190317; antibiotic alone) | MIC ATB alone (KPN BAA-1898; antibiotic alone) | MIC ATB alone (KPN 6299; antibiotic alone)
0.063 µg/mL: MIC ATB combined with Example 7 @8 μgml (KPN 6299; with Example 7 at 8 μg/ml) | MIC ATB combined with Example 13 @8 μg/ml (ECL P99; with Example 13 at 8 μg/ml)
32 µg/mL: MIC ATB alone (PAE 105250; CPO alone) | MIC ATB alone (PAE 105250; antibiotic alone) | MIC ATB combined with Example 9 @4 μg/ml (PAE 105250; with Example 9 @4 μg/ml)
>32 µg/mL: MIC ATB alone (ECO UFR39; CPO alone) | MIC ATB alone (ECO UFR39; antibiotic alone) | MIC ATB alone (KPN UFR42; CPO alone) | MIC ATB alone (KPN UFR42; antibiotic alone) | MIC ATB alone (PAE UFR90; CPO alone) | MIC ATB alone (PAE UFR90; antibiotic alone) | MIC ATB alone (PAE UFR48; CPO alone) | MIC ATB alone (PAE UFR48; antibiotic alone) | MIC ATB combined with Example 9 @4 μg/ml (PAE UFR48; with Example 9 @4 μg/ml)
<0.031 µg/mL: MIC ATB combined with Example 1 @8 μg/ml (ECO 190317; with Example 1 @8 μg/ml) | MIC ATB combined with Example 1 @8 μg/ml (ECO 190317; with Example 1 at 8 μg/ml) | MIC ATB combined with Example 7 @8 μgml (ECO 190317; with Example 7 at 8 μg/ml) | MIC ATB combined with Example 9 @4 μg/ml (ECO 190317; with Example 9 @4 μg/ml) | MIC ATB combined with Example 9 @4 μg/ml (ECO 190317; with Example 9 at 4 μg/ml) | MIC ATB combined with Example 11 @8 μg/ml (ECO 190317; with Example 11 at 8 μg/ml) | MIC ATB combined with Example 12 @8 μg/ml (ECO 190317; with Example 12 at 8 μg/ml) | MIC ATB combined with Example 13 @8 μg/ml (ECO 190317; with Example 13 at 8 μg/ml) | MIC ATB combined with Example 14 @8 μg/ml (ECO 190317; with Example 14 at 8 μg/ml) | MIC ATB combined with Example 16 @4 μg/ml (ECO 190317; with Example 16 at 4 μg/ml) | MIC ATB combined with Example 1 @8 μg/ml (ECO UFR39; with Example 1 @8 μg/ml) | MIC ATB combined with Example 9 @4 μg/ml (ECO UFR39; with Example 9 @4 μg/ml) | MIC ATB combined with Example 9 @4 μg/ml (SAU 29213; with Example 9 @4 μg/ml) | MIC ATB combined with Example 7 @8 μgml (KPN BAA-1898; with Example 7 at 8 μg/ml) | MIC ATB combined with Example 9 @4 μg/ml (KPN BAA-1898; with Example 9 @4 μg/ml) | MIC ATB combined with Example 9 @4 μg/ml (KPN BAA-1898; with Example 9 at 4 μg/ml) | MIC ATB combined with Example 12 @8 μg/ml (KPN BAA-1898; with Example 12 at 8 μg/ml) | MIC ATB combined with Example 14 @8 μg/ml (KPN BAA-1898; with Example 14 at 8 μg/ml) | MIC ATB combined with Example 16 @4 μg/ml (KPN BAA-1898; with Example 16 at 4 μg/ml) | MIC ATB combined with Example 11 @8 μg/ml (KPN 6299; with Example 11 at 8 μg/ml) | MIC ATB combined with Example 12 @8 μg/ml (KPN 6299; with Example 12 at 8 μg/ml) | MIC ATB combined with Example 14 @8 μg/ml (KPN 6299; with Example 14 at 8 μg/ml) | MIC ATB combined with Example 16 @4 μg/ml (KPN 6299; with Example 16 at 4 μg/ml) | MIC ATB combined with Example 9 @4 μg/ml (KPN UFR42; with Example 9 @4 μg/ml) | MIC ATB combined with Example 1 @8 μg/ml (PAE UFR90; with Example 1 @8 μg/ml) | MIC ATB combined with Example 1 @8 μg/ml (PAE 105250; with Example 1 @8 μg/ml) | MIC ATB combined with Example 1 @8 μg/ml (PAE UFR48; with Example 1 @8 μg/ml) | MIC ATB combined with Example 1 @8 μg/ml (ECL P99; with Example 1 @8 μg/ml) | MIC ATB combined with Example 1 @8 μg/ml (ECL P99; with Example 1 at 8 μg/ml) | MIC ATB combined with Example 9 @4 μg/ml (ECL P99; with Example 9 @4 μg/ml) | MIC ATB combined with Example 9 @4 μg/ml (ECL P99; with Example 9 at 4 μg/ml) | MIC ATB combined with Example 11 @8 μg/ml (ECL P99; with Example 11 at 8 μg/ml) | MIC ATB combined with Example 12 @8 μg/ml (ECL P99; with Example 12 at 8 μg/ml) | MIC ATB combined with Example 14 @8 μg/ml (ECL P99; with Example 14 at 8 μg/ml) | MIC ATB combined with Example 15 @4 μgml (ECL P99; with Example 15 at 4 μg/ml) | MIC ATB combined with Example 16 @4 μg/ml (ECL P99; with Example 16 at 4 μg/ml)
1 µg/mL: MIC ATB alone (SAU 29213; CPO alone) | MIC ATB alone (SAU 29213; antibiotic alone) | MIC ATB combined with Example 1 @8 μg/ml (SAU 29213; with Example 1 @8 μg/ml)
8 µg/mL: MIC ATB combined with Example 9 @4 μg/ml (PAE UFR90; with Example 9 @4 μg/ml)
